Data as given in BindingDB's records for doi:10.1002/cbic.200800304 (Research Institute, Hospital For Sick Children, 2008).

Molecular target: T1, Lysosomal acid glucosylceramidase (Homo sapiens, UniProt P04062)
T1 sequence (P04062 whole entry): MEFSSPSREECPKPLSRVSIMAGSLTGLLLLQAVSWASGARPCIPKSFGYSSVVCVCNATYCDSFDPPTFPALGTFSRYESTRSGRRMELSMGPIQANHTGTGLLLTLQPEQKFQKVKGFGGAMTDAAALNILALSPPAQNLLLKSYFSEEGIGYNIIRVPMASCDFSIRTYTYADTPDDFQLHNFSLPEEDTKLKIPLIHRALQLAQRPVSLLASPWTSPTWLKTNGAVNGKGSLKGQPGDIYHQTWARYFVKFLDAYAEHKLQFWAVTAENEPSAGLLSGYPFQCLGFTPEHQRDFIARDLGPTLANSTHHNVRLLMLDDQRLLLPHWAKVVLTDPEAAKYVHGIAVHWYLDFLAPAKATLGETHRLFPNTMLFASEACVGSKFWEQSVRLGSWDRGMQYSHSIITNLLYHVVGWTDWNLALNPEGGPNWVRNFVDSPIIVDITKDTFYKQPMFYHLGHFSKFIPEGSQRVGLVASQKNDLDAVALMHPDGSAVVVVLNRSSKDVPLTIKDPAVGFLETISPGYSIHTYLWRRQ
Experiment: Inhibiton Assay
Conditions: pH 5.5; 37 °C
Experimental: Beta-glucocerebrosidase (GCase) activity was measured by release of 4-methylumbelliferyl fluorophore from MUClc.

Structure (SMILES) | IC50 [µM]
Nc1nc(N)c2cc([N+](=O)[O-])ccc2n1 [2,4-diamino-6-nitro-quinazoline, 1a] | 61
Cc1ccc(Sc2cccc3nc(N)nc(N)c23)cc1 | 7.8
CCOc1ccc2c(N)nc(N)nc2c1OCC [7,8-diethoxy-quinazoline 2,4-diamine, 1b] | 22

Results, then the molecule that gave them:

IC50 [µM] | Structure (SMILES)
> 400 | CC(C)(C)C(=O)Nc1ccncc1 [2,2-dimethyl-N-(4-pyridinyl)propanamide, 2b]
4.7 | O=C(Nc1ccncc1)c1ccc(Oc2cc(Cl)cc(Cl)c2)o1 [5-(3,5-dichlorophenoxy)-N-(4-pyrdinyl)-2-furamide, 2]
